Read-outs that look alike come from different tables or passages of the source.
Target: T1, human androgen receptor (hAR) (Homo sapiens, UniProt P10275)
T1 sequence (P10275 1-920): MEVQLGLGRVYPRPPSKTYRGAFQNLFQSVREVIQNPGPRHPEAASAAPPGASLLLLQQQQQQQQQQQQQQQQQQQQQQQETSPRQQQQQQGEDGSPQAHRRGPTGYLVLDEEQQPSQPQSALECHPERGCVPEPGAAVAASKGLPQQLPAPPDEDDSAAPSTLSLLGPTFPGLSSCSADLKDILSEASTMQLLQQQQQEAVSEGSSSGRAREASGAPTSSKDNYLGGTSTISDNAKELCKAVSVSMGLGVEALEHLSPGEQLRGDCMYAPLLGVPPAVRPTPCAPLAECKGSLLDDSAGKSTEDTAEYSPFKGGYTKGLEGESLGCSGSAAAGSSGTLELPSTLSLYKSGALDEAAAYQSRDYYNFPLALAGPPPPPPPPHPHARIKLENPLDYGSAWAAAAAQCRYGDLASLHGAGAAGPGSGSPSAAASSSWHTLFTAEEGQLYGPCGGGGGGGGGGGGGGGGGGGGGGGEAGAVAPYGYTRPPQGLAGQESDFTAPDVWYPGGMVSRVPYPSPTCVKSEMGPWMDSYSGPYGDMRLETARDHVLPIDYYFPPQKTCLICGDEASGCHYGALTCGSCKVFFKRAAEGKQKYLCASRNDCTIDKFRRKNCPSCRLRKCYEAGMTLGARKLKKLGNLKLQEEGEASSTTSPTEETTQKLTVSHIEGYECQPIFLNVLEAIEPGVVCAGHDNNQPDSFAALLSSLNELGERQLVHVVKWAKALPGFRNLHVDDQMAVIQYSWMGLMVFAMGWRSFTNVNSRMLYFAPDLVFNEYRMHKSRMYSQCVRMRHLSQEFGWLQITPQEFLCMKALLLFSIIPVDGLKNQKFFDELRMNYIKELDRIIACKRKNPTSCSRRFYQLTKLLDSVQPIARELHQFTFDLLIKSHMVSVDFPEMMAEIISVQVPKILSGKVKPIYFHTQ
Assay: Functional response test: hAR transactivation (luciferase reporter) in HALP2 cells
Type: cell-based
Conditions: for EC50: agonism, HALP2 cells (HeLa, hAR + ARE-luciferase), 20 hours at 37° C.
Source text: This test constitutes a method of identifying pure or partial agonists which mimic the effects of natural hormones, such as DHT (dihydrotestosterone) in the present case or, on the other hand, antagonists which inhibit them.
For this transactivation test, plasmids encoding a reporter gene and the human androgen receptor (hAR) are introduced together by transfection into the HeLa cell line. The reporter plasmid contains luciferase cDNA under the control of the AREs contained in the promoter sequences of the probasin gene (3xpbAREminicoll-luciferase/pGL3-puro). The expression of the reporter gene constitutes an indication of the transcriptional activity of hAR. It also encodes a protein allowing the cells expressing it to resist a treatment with puromycin. The plasmid encoding hAR contains the cDNA of hAR under the control of the Cytomegalovirus (CMV) promoter. It also encodes a protein allowing the cells expressing it to resist a treatment with neomycin. The treatment of cells with increasing amounts of potentially agonistic compounds will increase the expression of the reporter gene. To detect antagonists, on the other hand, increasing doses of test compounds are tested in the presence of […] of DHT. The expression of the reporter gene, which is constant for each dose of DHT, decreases when the concentration of the test compounds increases.
For this test, HeLa cells were obtained from the American Type Culture Collection (Rockville, Md.) and cultivated in DMEM medium containing 4.5 g/l of glucose, supplemented with Glutamax and with nonessential amino-acids and with 10% of foetal calf serum (SVF; Dominique Dutscher).
On the day before transfection, a million cells were seeded in DMEM medium without phenol red, supplemented with Glutamax and with desteroided SVF (5%) in Petri dishes. The cells were transfected with 4 μg of the puromycin resistance plasmids pcDNA3-hAR and 3xpbAREminicoll-luciferase/pGL3 using the reagent “Lipofectamine plus” (Invitrogen), following the supplier's recommendations. The day after transfection, the cells were seeded to different cell densities (10,000 to 100,000 cellules per Petri dish). Two days after transfection, the transfected cells were selected in DMEM medium without phenol red, supplemented with Glutamax and with desteroided SVF (5%) containing 400 μg/mL of G418 (Invitrogen) and 150 ng/mL of puromycin (Sigma). The culture medium was renewed weekly until resistant clones appeared. The resistant clones were removed and amplified before being tested for their functional response. […]
The functional response test was conducted on 96-well plates. The HALP2 cells were seeded (30,000 cells per well) 24 hours before the phase of stimulation in DMEM medium containing 4.5 g/L of glucose, supplemented with Glutamax and nonessential amino-acids, and with desteroided SVF (5%).
On the day of stimulation, the seeding medium was replaced by DMEM medium without phenol red, supplemented with Glutamax and with desteroided SVF (5%). […] The cells were placed in contact with the compounds for 20 hours at 37° C.

[1] = antagonism, concentration which increases the EC50 of the DHT by a factor of 2, Schild regression, HALP2 cells

Row | SMILES | EC50 [nM] | KSchild (nM) potency [1] [nM] | KSchild (nM) potency [nM]
1 | CCOC(=O)CCN1C(=O)N(c2ccc(F)c(F)c2)C(=O)C1c1ccc(O)cc1 (centres unmarked) [Example 76] | 200 | 200 | –
2 | CCOC(=O)CCN1C(=O)N(c2cccc(C(F)(F)F)c2)C(=O)C1c1ccc(O)cc1 (centres unmarked) [Example 80] | 80 | 80 | –
3 | CCOC(=O)CCN1C(=O)N(c2ccc([N+](=O)[O-])cc2)C(=O)C1c1ccc(O)cc1 (centres unmarked) [Example 81] | – | – | 16.38
4 | CCOCCCN1C(=O)N(c2ccc(C#N)c(C(F)(F)F)c2)C(=O)C1c1ccc(O)cc1 (centres unmarked) [Example 82] | – | – | 30
5 | CCOCCCN1C(=O)N(c2ccc([N+](=O)[O-])c(C(F)(F)F)c2)C(=O)C1c1ccc(O)cc1 (centres unmarked) [Example 83] | – | – | 565.69
6 | CCOCCCN1C(=O)N(c2ccc(Cl)c(C(F)(F)F)c2)C(=O)C1c1ccc(O)cc1 (centres unmarked) [Example 86] | 49 | 48.99 | –
7 | CCOCCCN1C(=O)N(c2cccc(C(F)(F)F)c2)C(=O)C1c1ccc(O)cc1 (centres unmarked) [Example 89] | 200 | 200 | –
8 | N#CCN1C(=O)N(c2ccc(C#N)c(C(F)(F)F)c2)C(=O)C1c1ccc(O)cc1 (centres unmarked) [Example 90] | – | – | 282.84
9 | N#CCN1C(=O)N(c2ccc(Cl)c(C(F)(F)F)c2)C(=O)C1c1ccc(O)cc1 (centres unmarked) [Example 93] | – | – | 30
10 | N#CCN1C(=O)N(c2cccc(C(F)(F)F)c2)C(=O)C1c1ccc(O)cc1 (centres unmarked) [Example 96] | 693 | 692.82 | –
11 | N#Cc1ccc(N2C(=O)C(c3ccc(O)cc3)N(Cc3ccc4c(c3)OCO4)C2=O)cc1C(F)(F)F (centres unmarked) [Example 97] | – | – | 28.28
12 | O=C1C(c2ccc(O)cc2)N(Cc2ccc3c(c2)OCO3)C(=O)N1c1ccc([N+](=O)[O-])c(C(F)(F)F)c1 (centres unmarked) [Example 98] | – | – | 94.87
13 | CN(C)CCN1C(=O)N(c2ccc(C#N)c(C(F)(F)F)c2)C(=O)C1c1ccc(O)cc1 (centres unmarked) [Example 113] | – | – | 109.54
14 | CN(C)CCN1C(=O)N(c2ccc([N+](=O)[O-])c(C(F)(F)F)c2)C(=O)C1c1ccc(O)cc1 (centres unmarked) [Example 114] | – | – | 1095.45
15 | N#CCCN1C(=O)N(c2ccc(C#N)c(C(F)(F)F)c2)C(=O)C1c1ccc(O)cc1 (centres unmarked) [Example 121] | – | – | 17.32
16 | N#CCCN1C(=O)N(c2ccc([N+](=O)[O-])c(C(F)(F)F)c2)C(=O)C1c1ccc(O)cc1 (centres unmarked) [Example 122] | – | – | 244.95
17 | N#CCCN1C(=O)N(c2ccc(F)c(F)c2)C(=O)C1c1ccc(O)cc1 (centres unmarked) [Example 124] | 89.4 | 89.44 | –
18 | N#CCCN1C(=O)N(c2ccc(Cl)c(C(F)(F)F)c2)C(=O)C1c1ccc(O)cc1 (centres unmarked) [Example 125] | – | – | 30

The next lines start with results.

Row | EC50 [nM] | KSchild (nM) potency [1] [nM] | SMILES | KSchild (nM) potency [nM]
19 | 122 | 94.87 | CCOC(=O)CCN1C(=O)N(c2ccc(Cl)c(C(F)(F)F)c2)C(=O)C1c1ccc(O)cc1 (centres unmarked) [Example 77] | –
20 | 94.9 | 77.46 | CCOC(=O)CCN1C(=O)N(c2ccc(F)c(C(F)(F)F)c2)C(=O)C1c1ccc(O)cc1 (centres unmarked) [Example 78] | –
21 | 69.3 | 69.28 | CCOC(=O)CCN1C(=O)N(c2ccc(F)c(Cl)c2)C(=O)C1c1ccc(O)cc1 (centres unmarked) [Example 79] | –
22 | 24.5 | 17.32 | CCOCCCN1C(=O)N(c2ccc(Cl)c(Cl)c2)C(=O)C1c1ccc(O)cc1 (centres unmarked) [Example 84] | –
23 | 300 | 300 | CCOCCCN1C(=O)N(c2ccc(F)c(F)c2)C(=O)C1c1ccc(O)cc1 (centres unmarked) [Example 85] | –
24 | 77.5 | 77.46 | CCOCCCN1C(=O)N(c2ccc(F)c(C(F)(F)F)c2)C(=O)C1c1ccc(O)cc1 (centres unmarked) [Example 87] | –
25 | 34.6 | 34.64 | CCOCCCN1C(=O)N(c2ccc(F)c(Cl)c2)C(=O)C1c1ccc(O)cc1 (centres unmarked) [Example 88] | –
26 | 94.9 | 94.87 | N#CCN1C(=O)N(c2ccc(Cl)c(Cl)c2)C(=O)C1c1ccc(O)cc1 (centres unmarked) [Example 91] | –
27 | 1500 | 1500 | N#CCN1C(=O)N(c2ccc(F)c(F)c2)C(=O)C1c1ccc(O)cc1 (centres unmarked) [Example 92] | –
28 | 300 | 300 | N#CCN1C(=O)N(c2ccc(F)c(C(F)(F)F)c2)C(=O)C1c1ccc(O)cc1 (centres unmarked) [Example 94] | –
29 | 632 | 632.46 | N#CCN1C(=O)N(c2ccc(F)c(Cl)c2)C(=O)C1c1ccc(O)cc1 (centres unmarked) [Example 95] | –
30 | 69.3 | 69.28 | O=C1C(c2ccc(O)cc2)N(Cc2ccc3c(c2)OCO3)C(=O)N1c1ccc(Cl)c(Cl)c1 (centres unmarked) [Example 99] | –
31 | 77.5 | 77.46 | O=C1C(c2ccc(O)cc2)N(Cc2ccc3c(c2)OCO3)C(=O)N1c1ccc(F)c(F)c1 (centres unmarked) [Example 100] | –
32 | 245 | 244.95 | O=C1C(c2ccc(O)cc2)N(Cc2ccc3c(c2)OCO3)C(=O)N1c1ccc(Cl)c(C(F)(F)F)c1 (centres unmarked) [Example 101] | –
33 | 49 | 48.99 | O=C1C(c2ccc(O)cc2)N(Cc2ccc3c(c2)OCO3)C(=O)N1c1ccc(F)c(C(F)(F)F)c1 (centres unmarked) [Example 102] | –
34 | 49 | 48.99 | O=C1C(c2ccc(O)cc2)N(Cc2ccc3c(c2)OCO3)C(=O)N1c1ccc(F)c(Cl)c1 (centres unmarked) [Example 103] | –
35 | 200 | 200 | O=C1C(c2ccc(O)cc2)N(Cc2ccc3c(c2)OCO3)C(=O)N1c1cccc(C(F)(F)F)c1 (centres unmarked) [Example 104] | –
36 | 141 | 141.42 | CN(C)CCN1C(=O)N(c2ccc(Cl)c(Cl)c2)C(=O)C1c1ccc(O)cc1 (centres unmarked) [Example 115] | –
37 | 2000 | 2000 | CN(C)CCN1C(=O)N(c2ccc(F)c(F)c2)C(=O)C1c1ccc(O)cc1 (centres unmarked) [Example 116] | –
38 | 77.5 | 77.46 | CN(C)CCN1C(=O)N(c2ccc(Cl)c(C(F)(F)F)c2)C(=O)C1c1ccc(O)cc1 (centres unmarked) [Example 117] | –
39 | 245 | 244.95 | CN(C)CCN1C(=O)N(c2ccc(F)c(C(F)(F)F)c2)C(=O)C1c1ccc(O)cc1 (centres unmarked) [Example 118] | –
40 | 283 | 282.84 | CN(C)CCN1C(=O)N(c2ccc(F)c(Cl)c2)C(=O)C1c1ccc(O)cc1 (centres unmarked) [Example 119] | –
41 | 424 | 424.26 | CN(C)CCN1C(=O)N(c2cccc(C(F)(F)F)c2)C(=O)C1c1ccc(O)cc1 (centres unmarked) [Example 120] | –
42 | 42.4 | 30 | N#CCCN1C(=O)N(c2ccc(Cl)c(Cl)c2)C(=O)C1c1ccc(O)cc1 (centres unmarked) [Example 123] | –
43 | 212 | 212.13 | N#CCCN1C(=O)N(c2ccc(F)c(C(F)(F)F)c2)C(=O)C1c1ccc(O)cc1 (centres unmarked) [Example 126] | –

From patent publication US8168667B2 (Galapagos NV, priority 2006, dated 2012)
